According to patent publication US7816350B2, “Substituted [1,2,3] triazolo[4,5-D]pyrimidines as cdk inhibitors” (Institute of Experimental Botany ASCR, priority 2002, dated 2010):
Where “and” joins values, the source holds several entries; their conditions need not be identical. Identical values can stand only once.

Experiments:
[1] = system: K-562; assay: In vitro cytotoxic activity, MTT assay, K-562; type: cell-based; details: Homo sapiens, K562, 72 hours
[2] = biological target: T1, p34^cdc2/cyclin B (CDC2) (Homo sapiens, UniProt P06493); assay: CDK inhibition assay, p34cdc2/cyclin B kinase, histone H1 phosphorylation; type: biochemical
T1 construct: made in house; host or cells: Sf9 insect cells (baculovirus co-infection)
Experimental: (§1) Cyclin-dependent kinases (p34^cdc2, p33^cdk2) and cyclins (cyclin B, E) are produced in Sf9 insect cells coinfected with appropriate baculoviral constructs. The cells are harvested 68-72 hrs post infection in lysis buffer for 30 min on ice and the soluble fraction is recovered by centrifugation at 14.000 g for 10 min. The protein extract is stored at −80° C.
(§2) Lysis buffer: 50 mM Tris pH 7.4, 150 mM NaCl, 5 mM EDTA, 20 mM NaF, 1% Tween, 1 mM DTT, 0.1 mM PMSF, leupeptine, aprotonine.
(§3) To carry out experiments on kinetics under linear conditions, the final point test system for kinase activity measurement is used. The kinase is added to reaction mixture in such a way as to obtain linear activity with respect to the concentration of enzyme and with respect to time.
(§4) The p34^cdc2 and p33^cdk2 kinase inhibition determination involves the use of 1 mg/ml histone H1 (Sigma, type III-S) in the presence of 15 μM [γ-^32P]ATP ([…]) (Amersham) in a final volume of 20 μl. Kinase activity is determined at 30° C. in the kinase buffer.
(§5) Tested compounds are usually dissolved to 100 mM solutions in DMSO, final concentration of DMSO in reaction mixture never exceeds 1%. The controls contain suitable dilutions of DMSO.
(§6) After 10 min, addition 3×SDS sample buffer stops the incubations. Phosphorylated proteins are separated electrophoretically using 12.5% SDS polyacrylamide gel. The measurement of kinase activity is done using digital image analysis.
(§7) The kinase activity is expressed as a percentage of maximum activity, the apparent inhibition constants are determined by graphic analysis (FIG. 1).
(§8) Kinase buffer: 50 mM Hepes pH 7.4, 10 mM MgCl2, 5 mM EGTA, 10 mM 2-glycerolphosphate, 1 mM NaF, 1 mM DTT

[3] = biological target: IκB-α kinase; assay: IκB-α kinase inhibitory activity, in vitro kinase assay; type: biochemical
[4] = system: MCF7; assay: In vitro cytotoxic activity, MTT assay, MCF7; type: cell-based; details: Homo sapiens, 72 hours
Excerpt: One of the parameters used, as the basis for colorimetric assays is the metabolic activity of viable cells. For example, a microtiter assay, which uses the tetrazolium salt MTT, is now widely used to quantitate cell proliferation and cytotoxicity. For instance, this assay is used in drug screening programs and in chemosensitivity testing. Because only metabolically active cells cleave tetrazolium salts, these assays detect viable cells exclusively. In the case of MTT assay, yellow soluble tetrazolium salt is reduced to coloured water-insoluble formazan salt. After it is solubilized, the formazan formed can easily and rapidly be quantified in a conventional ELISA plate reader at 570 nm (maximum absorbance). The quantity of reduced formazan corresponds to number of vital cells in the culture.
Human T-lymphoblastic leukemia cell line CEM; promyelocytic HL-60 and monocytic U937 leukemias; breast carcinoma cell lines MCF-7, BT549, MDA-MB-231; glioblastoma U87MG cells; cervical carcinoma cells HELA; sarcoma cells U2OS and Saos2; hepatocellular carcinoma HepG2; mouse immortalized bone marrow macrophages B2.4 and B10A.4; P388D1 and L1210 leukemia; B16 and B16F10 melanomas were used for routine screening of compounds. The cells were maintained in Nunc/Corning 80 cm^2 plastic tissue culture flasks and cultured in cell culture medium (DMEM with 5 g/l glucose, 2 mM glutamine, 100 U/ml penicillin, 100 μg/ml streptomycin, 10% fetal calf serum and sodium bicarbonate).
The cell suspensions that were prepared and diluted according to the particular cell type and the expected target cell density (2.500-30.000 cells per well based on cell growth characteristics) were added by pipette (80 μl) into 96/well microtiter plates. Inoculates were allowed a pre-incubation period of 24 hours at 37° C. and 5% CO2 for stabilisation. Four-fold dilutions of the intended test concentration were added at time zero in 20 μl aliquots to the microtiter plate wells. Usually, test compound was evaluated at six 4-fold dilutions. In routine testing, the highest well concentration was 266.7 μM, but it can be the matter of change dependent on the agent. All drug concentrations were examined in duplicates. Incubations of cells with the test compounds lasted for 72 hours at 37° C., in 5% CO2 atmosphere and 100% humidity. At the end of incubation period, the cells were assayed by using the MTT. Ten microliters of the MTT stock solution were pipetted into each well and incubated further for 1-4 hours. After this incubation period, formazan was solubilized by addition of 100 μl/well of 10% SDS in water (pH=5.5) followed by further incubation at 37° C. overnight. The optical density (OD) was measured at 540 nm with the Labsystem iEMS Reader MF (UK). The tumour cell survival (TCS) was calculated using the following equation: TCS=(ODdrug exposed well/mean ODcontrol wells)×100%. The IC50 value, the drug concentration lethal to 50% of the tumour cells, was calculated from the obtained dose response curves (FIG. 2).

[5] = biological target: T2, p33^cdk2 (cyclin E) (Homo sapiens, UniProt P24941); assay: CDK inhibition assay, p33cdk2 kinase, histone H1 phosphorylation; type: biochemical
T2 construct: made in house; host or cells: Sf9 insect cells (baculovirus co-infection)
Experimental: as §1, §2, §3, §4, §5, §6, §7, §8

[6] = biological target: CDK9 - cyclin T1 (Homo sapiens, UniProt P50750); assay: CDK inhibitory activity, CDK9 - cyclin T1; type: biochemical
[7] = system: β-adrenergic receptors; assay: Modulation of the activity of β-adrenergic receptors, isoproterenol-induced cAMP synthesis in C6 glioma; type: cell-based; details: cAMP synthesis induced by 5 μM (−) isoproterenol, rat C6 glioma
Experimental: Rat C6 glioma (ATCC N^o CCL107) was cultivated in monolayer in serum-free chemically defined medium containing Ham's F10/minimal essential medium (1:1 vol/vol), 2 mM L-glutamine, 1% (vol/vol) minimal essential medium vitamins (100×), 1% (vol/vol) minimal essential medium nonessential amino acids (100×), 100 U/ml penicillin, 100 μg/ml streptomycin and 30 nM sodium selenite. Incubation was at 37° C. in a humidified atmosphere. Assays were performed in the logarithmic growth phase at a density of 2.5×10^5 cells/cm^2. Intracellular cAMP synthesis was induced by addition of 5 μM (−) isoproterenol. After 30 min incubation at 37° C. the medium was removed and the cellular amount of cAMP determined using the cAMP-enzyme immunoassay kit of Amersham. The I50 is determined from a dose-response curve in duplicate (Table 7). The effect of seven 8-azapurine-analogs was measured after simultaneous addition with isoproterenol.
As P2Y1-like and A2 purinergic receptors, negatively and positively coupled to adenylate cyclase respectively, are present on rat C6 glioma it has to be determined if the modulation of the synthesis of cAMP is due to inhibition of the activation of β-adrenergic receptors by isoproterenol are due to activation of purinergic receptors.

Chain of CDK9 - cyclin T1 (P50750 whole entry): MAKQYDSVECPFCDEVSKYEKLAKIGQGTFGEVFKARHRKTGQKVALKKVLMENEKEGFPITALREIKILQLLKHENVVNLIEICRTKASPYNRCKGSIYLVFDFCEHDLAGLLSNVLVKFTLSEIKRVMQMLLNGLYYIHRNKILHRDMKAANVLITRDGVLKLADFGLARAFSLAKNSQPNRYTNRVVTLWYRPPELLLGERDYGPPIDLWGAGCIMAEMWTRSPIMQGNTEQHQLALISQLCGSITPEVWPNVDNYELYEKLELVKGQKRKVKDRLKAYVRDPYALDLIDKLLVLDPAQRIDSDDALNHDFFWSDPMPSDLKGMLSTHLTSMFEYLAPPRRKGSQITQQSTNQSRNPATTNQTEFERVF
Chain of CDK9 - cyclin T1 (O60563 whole entry partner): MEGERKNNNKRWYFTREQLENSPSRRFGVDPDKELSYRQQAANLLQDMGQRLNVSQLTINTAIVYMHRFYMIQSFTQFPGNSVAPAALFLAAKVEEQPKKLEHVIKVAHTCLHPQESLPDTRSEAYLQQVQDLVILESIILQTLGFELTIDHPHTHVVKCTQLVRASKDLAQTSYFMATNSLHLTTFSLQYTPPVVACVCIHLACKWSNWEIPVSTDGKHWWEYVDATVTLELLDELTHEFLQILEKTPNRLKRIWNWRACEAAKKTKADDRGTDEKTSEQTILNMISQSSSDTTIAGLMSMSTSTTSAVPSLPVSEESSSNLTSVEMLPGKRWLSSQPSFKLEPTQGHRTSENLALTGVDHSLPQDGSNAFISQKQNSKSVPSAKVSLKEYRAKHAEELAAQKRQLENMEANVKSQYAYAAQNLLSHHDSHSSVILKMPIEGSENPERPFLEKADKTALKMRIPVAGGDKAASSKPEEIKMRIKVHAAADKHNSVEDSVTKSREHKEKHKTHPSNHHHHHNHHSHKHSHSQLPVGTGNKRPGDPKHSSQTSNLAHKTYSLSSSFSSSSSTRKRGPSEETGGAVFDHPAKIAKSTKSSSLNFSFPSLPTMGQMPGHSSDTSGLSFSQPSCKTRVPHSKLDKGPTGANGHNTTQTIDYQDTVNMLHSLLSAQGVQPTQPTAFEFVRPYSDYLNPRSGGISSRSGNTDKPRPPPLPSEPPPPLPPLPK
T1 sequence (P06493 whole entry, species assumed): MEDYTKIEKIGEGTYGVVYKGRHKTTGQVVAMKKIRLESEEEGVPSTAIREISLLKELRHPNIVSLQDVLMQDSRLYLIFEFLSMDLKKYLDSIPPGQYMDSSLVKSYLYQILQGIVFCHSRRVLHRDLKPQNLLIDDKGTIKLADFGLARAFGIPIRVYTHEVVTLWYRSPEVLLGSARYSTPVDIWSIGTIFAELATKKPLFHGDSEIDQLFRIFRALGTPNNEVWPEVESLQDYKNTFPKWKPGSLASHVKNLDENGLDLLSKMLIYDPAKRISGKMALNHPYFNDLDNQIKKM
T1 sequence (P14635 whole entry partner, species assumed): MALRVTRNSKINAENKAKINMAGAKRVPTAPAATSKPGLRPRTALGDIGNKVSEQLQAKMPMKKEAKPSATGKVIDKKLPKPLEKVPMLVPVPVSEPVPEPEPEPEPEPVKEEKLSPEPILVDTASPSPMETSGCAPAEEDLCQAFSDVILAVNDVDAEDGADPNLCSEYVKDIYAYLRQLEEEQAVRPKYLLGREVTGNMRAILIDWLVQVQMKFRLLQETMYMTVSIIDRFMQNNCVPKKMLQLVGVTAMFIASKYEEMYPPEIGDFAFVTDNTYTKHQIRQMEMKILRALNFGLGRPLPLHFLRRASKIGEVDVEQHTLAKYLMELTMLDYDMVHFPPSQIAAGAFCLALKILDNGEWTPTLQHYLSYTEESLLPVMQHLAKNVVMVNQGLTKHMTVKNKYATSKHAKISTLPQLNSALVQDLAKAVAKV

IC50 [2]	IC50 [3]	SMILES	IC50 [1]	IC50 [4]	further results
40 µM	> 100 µM	CC(C)[C@H](CO)Nc1nc(Nc2ccc(N)c(Cl)c2)c2nnn(C(C)C)c2n1	28.9 µM	22.5 µM	–
7 µM	> 100 µM	CC(C)n1nnc2c(Nc3cccc(Cl)c3)nc(NC3CCCCC3N)nc21 (stereo not shown)	12.2 µM	8.9 µM	–
20 µM	> 100 µM	CC(=O)Oc1cccc(CNc2nc(N[C@@H](CO)C(C)C)nc3c2nnn3C(C)C)c1	31.7 µM	28.2 µM	–
30 µM	80 µM	CC(C)[C@H](CO)Nc1nc(Nc2ccc(Cl)c(C(=O)O)c2)c2nnn(C(C)C)c2n1	42 µM	21 µM	–
–	> 100 µM	CC(C)n1nnc2c(Nc3cccc(Cl)c3)nc(NCCO)nc21	> 100 µM	> 100 µM	–
7 µM	> 100 µM	CC(C)[C@H](CO)Nc1nc(NCc2ccccc2O)c2nnn(C(C)C)c2n1	25 µM	24 µM	–
10 µM	85 µM	CC(=O)Oc1ccccc1CNc1nc(N[C@@H](CO)C(C)C)nc2c1nnn2C(C)C	24 µM	24.1 µM	–
> 100 µM	> 100 µM	CC(C)n1nnc2c(Nc3cccc(Cl)c3)nc(NCCCN)nc21	> 100 µM	100 µM	–
40 µM	–	CC(C)[C@H](CO)Nc1nc(Nc2ccccc2)c2nnn(C(C)C)c2n1	100 µM	80 µM	–
35 µM	> 100 µM and 80 µM	CC[C@H](CO)Nc1nc(Nc2cccc(Cl)c2)c2nnn(C(C)C)c2n1	> 100 µM	> 100 µM	–
11 µM	> 100 µM	CC(C)[C@H](CO)Nc1nc(NCc2ccc(Cl)c(O)c2O)c2nnn(C(C)C)c2n1	–	–	–
50 µM	> 100 µM	CC(C)[C@H](CO)Nc1nc(NCc2ccccc2)c2nnn(C)c2n1	–	–	–

Second part, the compound before the results:

SMILES	IC50 [2]	IC50 [3]	IC50 [1]	IC50 [4]	further results
CC(C)[C@H](CO)Nc1nc(NCc2cccc(O)c2)c2nnn(C(C)C)c2n1	8 µM	80 µM	17.5 µM	18 µM	–
CC(C)n1nnc2c(Nc3cccc(Cl)c3)nc(NC3CCC(N)CC3)nc21 (stereo not shown)	–	–	–	–	IC50 [5]: 3.1 µM; IC50 [6]: 1.1 µM
CC(C)C(CO)Nc1nc(NCc2ccccc2)c2nnn(C(C)C)c2n1 (stereo not shown)	–	–	–	–	Effect ([7]; result in words): inhibition; IC50 ([7]; read-out: I50): 32 ± 2 µM
CC(C)C(CO)Nc1nc(NCc2ccccc2O)c2nnn(C(C)C)c2n1 (stereo not shown)	–	–	–	–	IC50 [5]: 6.9 µM; IC50 [6]: 2.5 µM
CC(C)n1nnc2c(Nc3cccc(Cl)c3)nc(N(CCO)CCO)nc21	35 µM	> 100 µM	> 100 µM	100 µM	–
CC(=O)c1cccc(CNc2nc(N[C@@H](CO)C(C)C)nc3c2nnn3C(C)C)c1	40 µM	> 100 µM	50.6 µM	47.6 µM	–
CC(C)n1nnc2c(NCc3ccccc3)nc(NCCCO)nc21	–	–	–	–	IC50 [5]: 54.6 µM; IC50 [6]: 29.2 µM
CC(C)n1nnc2c(NCc3ccccc3O)nc(NC3CCC(O)CC3)nc21 (stereo not shown)	–	–	–	–	IC50 [5]: > 10 µM; IC50 [6]: 9.9 µM
CC(C)[C@H](CO)Nc1nc(Nc2ccc(Cl)c(N)c2)c2nnn(C(C)C)c2n1	24 µM	–	18.8 µM	16.4 µM	–
CC[C@H](CO)Nc1nc(NCc2ccc(O)cc2)c2[nH]nc(C(C)C)c2n1	–	–	–	–	Effect, fold activation [7]: 1.2-fold activation
CC[C@H](CO)Nc1nc(NCc2ccc(OC)c(O)c2)c2nnn(C(C)C)c2n1	–	–	–	–	IC50 [5]: 6.4 µM; IC50 [6]: 2 µM
CC(C)[C@H](CO)Nc1nc(Nc2ccc(O)c(C(=O)O)c2)c2nnn(C(C)C)c2n1	34 µM	> 100 µM	28 µM	24 µM	–
CC(=O)c1ccccc1CNc1nc(N[C@@H](CO)C(C)C)nc2c1nnn2C(C)C	25 µM	> 100 µM	34.9 µM	40.8 µM	–
CC[C@H](CO)Nc1nc(NCc2ccccc2)c2nnn(C(C)C)c2n1	–	–	–	–	IC50 [5]: 23.2 µM; IC50 [6]: 11.5 µM
CC(C)n1nnc2c(NCc3ccccc3O)nc(NC3CCC(N)CC3)nc21 (stereo not shown)	–	–	–	–	IC50 [5]: 27.7 µM; IC50 [6]: 14.7 µM
CC(C)n1nnc2c(NCc3cccc(O)c3)nc(NC3CCC(N)CC3)nc21 (stereo not shown)	–	–	–	–	IC50 [5]: > 10 µM; IC50 [6]: 1.7 µM
CC(C)[C@H](CO)Nc1nc(Nc2cccc(Cl)c2)c2nnn(C(C)C)c2n1	20 µM	80 µM	96 µM	80 µM	–
CC(C)n1nnc2c(NCc3ccc(O)cc3)nc(NC3CCC(N)CC3)nc21 (stereo not shown)	–	–	–	–	IC50 [5]: > 10 µM; IC50 [6]: 1.4 µM
CC(C)[C@H](CO)Nc1nc(Nc2ccc(Br)cc2)c2nnn(C(C)C)c2n1	35 µM	> 100 µM	75 µM	64 µM	–
CC(C)n1nnc2c(Nc3cccc(Cl)c3)nc(NCCN)nc21	> 100 µM	> 100 µM	> 100 µM	100 µM	–
COc1ccc(CNc2nc(NC3CCCCC3N)nc3c2nnn3C(C)C)cc1O (stereo not shown)	–	–	–	–	IC50 [5]: 7 µM; IC50 [6]: 1.7 µM
OC1CCC(Nc2nc(Nc3cccc(Cl)c3)c3nn[nH]c3n2)CC1 (stereo not shown)	–	–	–	–	IC50 [5]: 0.1 µM; IC50 [6]: 8 µM
CC(C)n1nnc2c(Nc3cccc(Cl)c3)nc(NCCCO)nc21	–	> 100 µM	> 100 µM	> 100 µM	–
Cn1nnc2c(NCc3ccccc3)nc(NCCCN)nc21	90 µM	> 100 µM	–	–	–
CC(C)[C@H](CO)Nc1nc(Nc2cc(N)cc(Cl)c2)c2nnn(C(C)C)c2n1	27 µM	80 µM	–	–	–
Cn1nnc2c(NCc3ccccc3)nc(NC3CCC(N)CC3)nc21 (stereo not shown)	16 µM	40 µM	–	–	–
CC(C)[C@H](CO)Nc1nc(Nc2ccc(Cl)cc2)c2nnn(C(C)C)c2n1	35 µM	90 µM	19.4 µM	17.6 µM	–
